This passage reports Kd results from paper PMC3910101 (International journal of cancer. Journal international du …, 2012).

In the experiment the target is Hsp90. Description: SPR. The format is binding, Homo sapiens.

Structures are written as SMILES.

The Kd is the equilibrium constant for the complex coming apart. A high value points to lower affinity. `CC(C)=CCCC1(C)C=Cc2c(c(C)cc3c2[nH]c2cc(O)ccc23)O1` (stereo not shown) [mahanine] came in with a Kd of 4.99 µM.
